Columns and labels:
EGFR D770_N771insNPG = EGFR D770_N771insNPG (Homo sapiens, UniProt P00533, INS770NPG); assay: TR-FRET inhibition of kinase activity of EGFR exon 20 insertion mutation; format: biochemical
Text: Determination of the Inhibitory Effect of the Compound of the Present Invention on the Kinase Activity of EGFR Exon 20 Insertion Mutation
Experimental objective: The objective of this test example is to determine the inhibitory effect of the compound on the kinase activity of EGFR exon 20 insertion mutation.
Experimental process: The experiment applied the TR-FRET (time-resolved fluorescence resonance energy transfer) method to study the inhibitory effect of the compound on the kinase activity of EGFR exon 20 insertion mutation. The experiment was carried out in a 384-well plate. Experimental buffer (50 mM HEPES, 1 mM EGTA, 10 mM MgCl2, 2 mM DTT, 0.01% Tween-20) was formulated. The compound was diluted in gradient to different concentrations with the experimental buffer. 2.5 μL of the solution was added to each well of the 384-well plate. 2.5 μL of diluted EGFR kinase solution (0.001-0.5 nM) was added, and the plate was incubated at room temperature for 10 minutes. 5 μL of ULight-poly GT/ATP mixed solution was added, and the plate was incubated at room temperature for 30 to 60 minutes. 5 μL of EDTA stop solution and 5 μL of Eu-labeled antibody detection solution were added, and the plate was incubated at room temperature for 1 hour.
(§1) Experimental Data Processing Method:
The concentration and inhibition rate were fitted to a nonlinear regression curve by Graphpad Prism software to obtain the IC50 value.

[1] = biological target: Ba/F3 EGFR-D770-N771ins_SVD (Homo sapiens, UniProt P00533, DUP768-770, cells depend on it); assay: Proliferation of Ba/F3 EGFR mutant cell line (CellTiter-Glo); format: cell-based, mouse; conditions: 72 h to 144 h, read-out: Ba/F3 EGFR-D770-N771ins_SVD IC50
Protocol: Determination of the Inhibitory Effect of the Compound of the Present Invention on the Proliferation of Ba/F3 EGFR Mutant Cell Line and A431 Cell Line
(§2) Experimental objective: The objective of this test example is to determine the inhibitory effect of the compound on the proliferation of Ba/F3 EGFR mutant cell line and A431 cell line
(§3) Experimental instruments: Microplate reader (BioTek Synergy H1), pipette (Eppendorf & Rainin).
Ba/F3 EGFR mutant cells were cultured, and harvested after reaching a suitable density. The cells were adjusted to an appropriate cell concentration with the complete medium. The cell suspension were spread on a 96-well plate (90 μL per well), and the plate was placed in a 37° C., 5% CO2 incubator overnight to let the cells adhere to the wall. Solutions of the compound at different concentrations were formulated with DMSO and culture medium. Solvent control was set. […] CellTiter-Glo solution was added and mixed well by shaking, and the plate was incubated in the dark for 10 minutes. The values were measured by BioTek Synergy H1 microplate reader.
as §1
(§4) The inhibition rate was calculated using the […] signal value. The concentration and inhibition rate were fitted to a nonlinear regression curve by Graphpad Prism software to obtain the IC50 value.

A431 cell line = assay: Proliferation of A431 cell line (CellTiter-Glo); format: cell-based; conditions: Homo sapiens, A-431, 72 h
Protocol: Test Example 3. Determination of the Inhibitory Effect of the Compound of the Present Invention on the Proliferation of Ba/F3 EGFR Mutant Cell Line and A431 Cell Line
as §2, §3
A431 cells were cultured, and harvested after reaching a suitable density. The cells were adjusted to an appropriate cell concentration with the complete medium. The cell suspension were spread on a 96-well plate (90 μL per well), and the plate was placed in a 37° C., 5% CO2 incubator overnight to let the cells adhere to the wall. Solutions of the compound at different concentrations were formulated with DMSO and culture medium. Solvent control was set. The solution of the compound was added to the 96-well plate ([…]), and the plate was incubated in the 37° C., 5% CO2 incubator for 72 h. CellTiter-Glo solution was added and mixed well by shaking, and the plate was incubated in the dark for 10 minutes. The values were measured by BioTek Synergy H1 microplate reader.
as §1, §4

Chain of EGFR D770_N771insNPG (P00533 with tags, fused parts or gaps INS770NPG limits assumed): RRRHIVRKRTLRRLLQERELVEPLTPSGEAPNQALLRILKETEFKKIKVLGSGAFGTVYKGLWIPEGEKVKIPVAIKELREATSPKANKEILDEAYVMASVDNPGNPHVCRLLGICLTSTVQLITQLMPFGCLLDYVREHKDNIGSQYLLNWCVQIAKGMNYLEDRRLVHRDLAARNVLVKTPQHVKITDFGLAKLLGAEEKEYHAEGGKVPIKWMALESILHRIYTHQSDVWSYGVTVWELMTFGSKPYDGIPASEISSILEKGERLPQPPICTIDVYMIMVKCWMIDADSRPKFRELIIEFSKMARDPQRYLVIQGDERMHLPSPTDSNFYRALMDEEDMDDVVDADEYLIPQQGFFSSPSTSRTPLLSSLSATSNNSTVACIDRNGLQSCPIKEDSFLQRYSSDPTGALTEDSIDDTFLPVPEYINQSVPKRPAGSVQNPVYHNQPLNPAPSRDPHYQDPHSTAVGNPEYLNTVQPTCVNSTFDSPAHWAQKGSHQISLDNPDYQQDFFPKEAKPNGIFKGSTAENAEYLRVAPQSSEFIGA
Chain of Ba/F3 EGFR-D770-N771ins_SVD (P00533 with tags, fused parts or gaps DUP768-770): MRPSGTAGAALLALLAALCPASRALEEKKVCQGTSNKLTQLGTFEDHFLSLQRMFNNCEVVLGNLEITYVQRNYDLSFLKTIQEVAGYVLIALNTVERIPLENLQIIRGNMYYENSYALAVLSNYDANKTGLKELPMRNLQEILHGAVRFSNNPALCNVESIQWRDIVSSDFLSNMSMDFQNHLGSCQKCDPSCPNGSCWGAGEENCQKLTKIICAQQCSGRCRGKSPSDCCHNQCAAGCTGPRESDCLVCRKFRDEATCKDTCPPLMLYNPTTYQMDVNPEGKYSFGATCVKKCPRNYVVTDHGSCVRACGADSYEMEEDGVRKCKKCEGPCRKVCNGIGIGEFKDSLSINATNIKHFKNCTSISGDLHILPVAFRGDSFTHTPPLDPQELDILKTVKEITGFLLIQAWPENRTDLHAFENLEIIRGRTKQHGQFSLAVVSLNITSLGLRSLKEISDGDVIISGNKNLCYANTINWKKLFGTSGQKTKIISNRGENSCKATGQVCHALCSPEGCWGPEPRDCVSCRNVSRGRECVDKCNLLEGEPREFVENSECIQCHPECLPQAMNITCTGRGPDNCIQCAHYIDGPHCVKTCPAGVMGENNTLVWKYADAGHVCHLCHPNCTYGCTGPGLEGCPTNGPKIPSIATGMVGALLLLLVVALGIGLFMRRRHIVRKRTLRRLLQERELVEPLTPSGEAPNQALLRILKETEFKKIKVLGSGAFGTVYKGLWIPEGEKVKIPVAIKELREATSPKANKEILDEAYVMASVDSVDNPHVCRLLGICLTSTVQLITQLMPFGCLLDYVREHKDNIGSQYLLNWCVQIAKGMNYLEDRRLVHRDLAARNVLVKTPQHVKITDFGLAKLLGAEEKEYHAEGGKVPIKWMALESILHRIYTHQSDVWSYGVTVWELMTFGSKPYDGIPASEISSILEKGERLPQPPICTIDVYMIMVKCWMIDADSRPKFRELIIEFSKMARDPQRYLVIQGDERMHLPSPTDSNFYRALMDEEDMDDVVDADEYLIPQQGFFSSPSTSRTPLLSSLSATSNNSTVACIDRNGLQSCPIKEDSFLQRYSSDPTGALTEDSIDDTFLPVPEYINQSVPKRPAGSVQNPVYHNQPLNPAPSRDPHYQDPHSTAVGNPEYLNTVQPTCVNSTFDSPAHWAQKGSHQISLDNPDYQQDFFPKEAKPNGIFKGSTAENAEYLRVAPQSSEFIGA

IC50 (EGFR D770_N771insNPG) | GI50 [1] | IC50 (A431 cell line) | SMILES
0.17 nM | 26.7 nM |  | C=CC(=O)Nc1cc(Nc2ncc(C#N)c(-c3cn(C4CC4)c4cc(OC)ccc34)n2)c(OC)cc1N(C)CCN(C)C [Example 112, N-(5-((5-Cyano-4-(1-cyclopropyl-6-methoxy-1H-indol-3-yl)pyrimidin-2-yl)amino)-2-((2-(dimethylamino)ethyl)(methyl)amino)-4-methoxyphenyl)acrylamide]
 | 47.4 nM |  | C=CC(=O)Nc1cc(Nc2ncc(-c3ccnn3C)c(-c3cn(C4CC4)c4ccccc34)n2)c(OC)cc1N1C[C@H]2CN(C)C[C@H]2C1 [Example 70, N-(5-((4-(1-Cyclopropyl-1H-indol-3-yl)-5-(1-methyl-1H-pyrazol-5-yl)pyrimidin-2-yl)amino)-4-methoxy-2-((3aR,6aS)-5-methylhexahydropyrrolo[3,4-c]pyrrol-2(1H)-yl)phenyl)acrylamide]
0.36 nM |  |  | C=CC(=O)Nc1cc(Nc2ncc(C(=O)OC(C)C)c(-c3cn(C)c4ccccc34)n2)c(OC)cc1N1CC2(CN(C)C2)C1 [Example 26, Isopropyl 2-((5-acrylamido-2-methoxy-4-(6-methyl-2,6-diazaspiro[3.3]heptan-2-yl)phenyl)amino)-4-(1-methyl-1H-indol-3-yl)pyrimidine-5-carboxylate]
 | 15 nM | 124 nM | C=CC(=O)Nc1cc(Nc2ncc(C(=O)OC(C)C)c(-c3cn(C)c4ccccc34)n2)c(OC)cc1N1C[C@H]2CN(C)C[C@H]2C1 [Example 24, Isopropyl 2-((5-acrylamido-2-methoxy-4-(5-methylhexahydropyrrolo[3,4-c]pyrrol-2(1H)-yl)phenyl)amino)-4-(1-methyl-1H-indol-3-yl)pyrimidine-5-carboxylate]
0.7 nM |  |  | C=CC(=O)Nc1cc(Nc2ncc(C#N)c(-c3cn(C4CC4)c4ccccc34)n2)c(OC)cc1OCCN(C)C [Example 113, N-(5-((5-Cyano-4-(1-cyclopropyl-1H-indol-3-yl)pyrimidin-2-yl)amino)-2-(2-(dimethylamino)ethoxy)-4-methoxyphenyl)acrylamide]
 | 54.9 nM | 238 nM | C=CC(=O)Nc1cc(Nc2ncc(-c3ccn(C)n3)c(-c3cn(C4CC4)c4ccccc34)n2)c(OC)cc1N1C[C@H]2CN(C)C[C@H]2C1 [Example 71, N-(5-((4-(1-Cyclopropyl-1H-indol-3-yl)-5-(1-methyl-1H-pyrazol-3-yl)pyrimidin-2-yl)amino)-4-methoxy-2-((3aR,6aS)-5-methylhexahydropyrrolo[3,4-c]pyrrol-2(1H)-yl)phenyl)acrylamide]
 | 40 nM |  | C=CC(=O)Nc1cc(Nc2ncc(-c3ccc(F)cc3F)c(-c3cn(C4CC4)c4ccccc34)n2)c(OC)cc1N1C[C@H]2CN(C)C[C@H]2C1 [Example 69, N-(5-((4-(1-Cyclopropyl-1H-indol-3-yl)-5-(2,4-difluorophenyl)pyrimidin-2-yl)amino)-4-methoxy-2-((3aR,6aS)-5-methylhexahydropyrrolo[3,4-c]pyrrol-2(1H)-yl)phenyl)acrylamide]
0.62 nM |  |  | C=CC(=O)Nc1cc(Nc2ncc(C(=O)OC(C)C)c(-c3cn(C)c4ccccc34)n2)c(OC)cc1N1C[C@H]2CN(C)C[C@H]2C1 [Example 63, Isopropyl 2-((5-acrylamido-2-methoxy-4-((3aR,6aS)-5-methylhexahydropyrrolo[3,4-c]pyrrol-2(1H)-yl)phenyl)amino)-4-(1-methyl-1H-indol-3-yl)pyrimidine-5-carboxylate]
0.61 nM | 42.5 nM |  | C=CC(=O)Nc1cc(Nc2ncc(C#N)c(-c3cn(C4CC4)c4cc(F)ccc34)n2)c(OC)cc1N(C)CCN(C)C [Example 114, N-(5-((5-Cyano-4-(1-cyclopropyl-6-fluoro-1H-indol-3-yl)pyrimidin-2-yl)amino)-2-((2-(dimethylamino)ethyl)(methyl)amino)-4-methoxyphenyl)acrylamide]
0.17 nM | 15.4 nM |  | C=CC(=O)Nc1cc(Nc2ncc(-c3cnn(C)c3)c(-c3cn(C4CC4)c4ccccc34)n2)c(OC)cc1N1C[C@H]2CCN(C)[C@H]2C1 [Example 68]
0.27 nM | 17.4 nM |  | C=CC(=O)Nc1cc(Nc2ncc(-c3cnn(C)c3)c(-c3cn(C4CC4)c4ccccc34)n2)c(OC)cc1N(C)CCN(C)C [Example 85, N-(5-((4-(1-Cyclopropyl-1H-indol-3-yl)-5-(1-methyl-1H-pyrazol-4-yl)pyrimidin-2-yl)amino)-2-((2-(dimethylamino)ethyl)(methyl)amino)-4-methoxyphenyl)acrylamide]
0.68 nM |  |  | C=CC(=O)Nc1cc(Nc2ncc(C#N)c(-c3cn(C4CC4)c4ncccc34)n2)c(OC)cc1N(C)CCN(C)C [Example 139, N-(5-((5-Cyano-4-(1-cyclopropyl-1H-pyrrolo[2,3-b]pyridin-3-yl)pyrimidin-2-yl)amino)-2-((2-(dimethylamino)ethyl)(methyl)amino)-4-methoxyphenyl)acrylamide]
0.91 nM |  |  | C=CC(=O)Nc1cc(Nc2ncc(C#N)c(-c3cn(C4CC4)c4ccccc34)n2)c(OC)cc1N1CC[C@H](N(C)C)C1 [Example 77, (S)—N-(5-((5-cyano-4-(1-cyclopropyl-1H-indol-3-yl)pyrimidin-2-yl)amino)-2-(3-(dimethylamino)pyrrolidin-1-yl)-4-methoxyphenyl)acrylamide]
0.29 nM | 21 nM |  | C=CC(=O)Nc1cc(Nc2ncc(-c3cnn(C)c3)c(-c3cn(C4CC4)c4ccccc34)n2)c(OC)cc1N1C[C@H]2CN(C)C[C@H]2C1 [Example 43, N-(5-((4-(1-Cyclopropyl-1H-indol-3-yl)-5-(1-methyl-1H-pyrazol-4-yl)pyrimidin-2-yl)amino)-4-methoxy-2-((3aR,6aS)-5-methylhexahydropyrrolo[3,4-c]pyrrol-2(1H)-yl)phenyl)acrylamide]
0.49 nM | 45.4 nM |  | C=CC(=O)Nc1cc(Nc2ncc(C#N)c(-c3cn(C4CC4)c4c(OC)cccc34)n2)c(OC)cc1N(C)CCN(C)C [Example 119, N-(5-((5-Cyano-4-(1-cyclopropyl-7-methoxy-1H-indol-3-yl)pyrimidin-2-yl)amino)-2-((2-(dimethylamino)ethyl)(methyl)amino)-4-methoxyphenyl)acrylamide]
0.53 nM |  |  | C=CC(=O)Nc1cc(Nc2ncc(C#N)c(-c3cn(C4CC4)c4ccccc34)n2)c(OC)cc1N1C[C@@H]2CCN(C)[C@@H]2C1 [Example 110, N-(5-((5-Cyano-4-(1-cyclopropyl-1H-indol-3-yl)pyrimidin-2-yl)amino)-4-methoxy-2-((3aS,6aS)-1-methylhexahydropyrrolo[3,4-b]pyrrol-5(1H)-yl)phenyl)acrylamide]
0.64 nM |  |  | C=CC(=O)Nc1cc(Nc2ncc(C#N)c(-c3cn(C4CC4)c4ccccc34)n2)c(OC)cc1N1CC(N(C)C)C1 [Example 74, N-(5-((5-Cyano-4-(1-cyclopropyl-1H-indol-3-yl)pyrimidin-2-yl)amino)-2-(3-(dimethylamino)azetidin-1-yl)-4-methoxyphenyl)acrylamide]
0.29 nM | 15.1 nM |  | C=CC(=O)Nc1cc(Nc2ncc(-c3cnn(C)c3)c(-c3cn(C4CC4)c4ccccc34)n2)c(OC)cc1N1C[C@@H]2CCN(C)[C@@H]2C1 [Example 65, N-(5-((4-(1-Cyclopropyl-1H-indol-3-yl)-5-(1-methyl-1H-pyrazol-4-yl)pyrimidin-2-yl)amino)-4-methoxy-2-((3aS,6aS)-1-methylhexahydropyrrolo[3,4-b]pyrrol-5(1H)-yl)phenyl)acrylamide]
